From patent US8653263B2 (Janssen Pharmaceutica, priority 2009, dated 2014)

target: human orexin-2 receptor (Homo sapiens (Human), UniProt O43614); assay: Human orexin 2 receptor radioligand binding ([3H]-EMPA competition); conditions: HEK293 cells stably expressing human orexin-2 receptor; [3H]-EMPA 5 nM final; apparent Ki=IC50/(1+C/Kd), Kd=2 nM; read-out: OR 2 Ki
Sequence (O43614 whole entry): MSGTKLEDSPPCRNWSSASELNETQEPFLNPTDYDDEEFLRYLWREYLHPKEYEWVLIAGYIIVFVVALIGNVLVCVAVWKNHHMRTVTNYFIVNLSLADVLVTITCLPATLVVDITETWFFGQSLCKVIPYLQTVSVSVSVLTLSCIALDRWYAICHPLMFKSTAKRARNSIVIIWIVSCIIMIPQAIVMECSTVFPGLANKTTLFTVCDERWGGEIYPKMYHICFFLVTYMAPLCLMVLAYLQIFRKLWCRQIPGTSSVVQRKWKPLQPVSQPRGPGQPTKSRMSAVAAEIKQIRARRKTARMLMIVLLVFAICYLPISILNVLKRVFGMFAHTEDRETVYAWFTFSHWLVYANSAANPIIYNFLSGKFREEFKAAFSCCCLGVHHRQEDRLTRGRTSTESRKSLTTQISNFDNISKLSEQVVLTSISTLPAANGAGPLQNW

SMILES | Ki [µM]
Cc1nc(=O)cc(N2CC3CN(C(=O)c4nc(C)sc4-c4ccc(F)cc4)CC3C2)[nH]1 (stereo not shown) [Example 255, 6-[5-{[5-(4-Fluorophenyl)-2-methyl-1,3-thiazol-4-yl]carbonyl}hexahydropyrrolo[3,4-c]pyrrol-2(1H)-yl]-2-methylpyrimidin-4(3H)-one] | 10
O=C(O)c1cnc(N2CC3CN(C(=O)c4c(F)cccc4-n4nccn4)CC3C2)nc1C(F)(F)F (stereo not shown) [Example 263, 2-(5-(2-Fluoro-6-(2H-1,2,3-triazol-2-yl)benzoyl)hexahydropyrrolo[3,4-c]pyrrol-2(1H)-yl)-4-(trifluoromethyl)pyrimidine-5-carboxylic acid] | 10
Cc1cc(C(=O)O)nc(N2CC3CN(C(=O)c4c(F)cccc4-n4nccn4)CC3C2)n1 (stereo not shown) [Example 265, 2-(5-(2-Fluoro-6-(2H-1,2,3-triazol-2-yl)benzoyl)hexahydropyrrolo[3,4-c]pyrrol-2(1H)-yl)-6-methylpyrimidine-4-carboxylic acid] | 9
Cc1cc(C)nc(N2CC3CN(C(=O)c4cccc(C)c4-n4ccnn4)CC3C2)n1 (stereo not shown) [Example 267, (5-(4,6-Dimethylpyrimidin-2-yl)hexahydropyrrolo[3,4-c]pyrrol-2(1H)-yl)(3-methyl-2-(1H-1,2,3-triazol-1-yl)phenyl)methanone] | 10
Cc1cc(C)c(C(=O)N2CC3CN(c4nc(C)cc(C)n4)CC3C2)c(C)c1 (stereo not shown) [Example 270, (5-(4,6-Dimethylpyrimidin-2-yl)hexahydropyrrolo[3,4-c]pyrrol-2(1H)-yl)(mesityl)methanone] | 1.03
Cc1cc(C)nc(N2CC3CN(C(=O)c4cccc(F)c4F)CC3C2)n1 (stereo not shown) [Example 271, (2,3-Difluorophenyl)(5-(4,6-dimethylpyrimidin-2-yl)hexahydropyrrolo[3,4-c]pyrrol-2(1H)-yl)methanone] | 5
COc1cccc(C(=O)N2CC3CN(c4nc(C)cc(C)n4)CC3C2)c1OC (stereo not shown) [Example 273, (2,3-Dimethoxyphenyl)(5-(4,6-dimethylpyrimidin-2-yl)hexahydropyrrolo[3,4-c]pyrrol-2(1H)-yl)methanone] | 5
Cc1cc(C)nc(N2CC3CN(C(=O)c4ccccc4OC(F)(F)F)CC3C2)n1 (stereo not shown) [Example 274, (5-(4,6-Dimethylpyrimidin-2-yl)hexahydropyrrolo[3,4-c]pyrrol-2(1H)-yl)(2-(trifluoromethoxy)phenyl)methanone] | 0.061
COc1cc(C)ccc1C(=O)N1CC2CN(c3nc(C)cc(C)n3)CC2C1 (stereo not shown) [Example 276, (5-(4,6-Dimethylpyrimidin-2-yl)hexahydropyrrolo[3,4-c]pyrrol-2(1H)-yl)(2-methoxy-4-methylphenyl)methanone] | 2.95
COc1ccc(C(=O)N2CC3CN(c4nc(C)cc(C)n4)CC3C2)c(C)c1 (stereo not shown) [Example 277, (5-(4,6-Dimethylpyrimidin-2-yl)hexahydropyrrolo[3,4-c]pyrrol-2(1H)-yl)(4-methoxy-2-methylphenyl)methanone] | 0.68
Cc1cc(C)nc(N2CC3CN(C(=O)c4c(F)cccc4F)CC3C2)n1 (stereo not shown) [Example 278, (2,6-Difluorophenyl)(5-(4,6-dimethylpyrimidin-2-yl)hexahydropyrrolo[3,4-c]pyrrol-2(1H)-yl)methanone] | 2.27
COc1cccc(C(=O)N2CC3CN(c4nc(C)cc(C)n4)CC3C2)c1-n1ccnn1 (stereo not shown) [Example 286, 2-(4,6-Dimethylpyrimidin-2-yl)-5-{[3-methoxy-2-(1H-1,2,3-triazol-1-yl)phenyl]carbonyl}octahydropyrrolo[3,4-c]pyrrole] | 10
Cc1cc(C)nc(N2CC3CN(C(=O)c4cccc(F)c4-n4ccnn4)CC3C2)n1 (stereo not shown) [Example 287, 2-(4,6-Dimethylpyrimidin-2-yl)-5-{[3-fluoro-2-(1H-1,2,3-triazol-1-yl)phenyl]carbonyl}octahydropyrrolo[3,4-c]pyrrole] | 1.4
COc1ccc(C(=O)N2CC3CN(c4nc(C)cc(C)n4)CC3C2)c(-n2ccnn2)c1 (stereo not shown) [Example 289] | 1.8
O=C(c1ccccc1-n1nccn1)N1CC2CN(c3nc(Cl)ncc3F)CC2C1 (stereo not shown) [Example 291, 2-(2-Chloro-5-fluoropyrimidin-4-yl)-5-{[2-(2H-1,2,3-triazol-2-yl)phenyl]carbonyl}octahydropyrrolo[3,4-c]pyrrole] | 0.266
Cc1cc(C(C)C)nc(N2CC3CN(C(=O)c4cc(C(C)C)ccc4-n4nccn4)CC3C2)n1 (stereo not shown) [Example 300, 2-{[5-(1-Methylethyl)-2-(2H-1,2,3-triazol-2-yl)phenyl]carbonyl}-5-[4-methyl-6-(1-methylethyl)pyrimidin-2-yl]octahydropyrrolo[3,4-c]pyrrole] | 0.29
Cc1ncnc(N2CC3CN(C(=O)c4c(F)cccc4-n4nccn4)CC3C2)n1 (stereo not shown) [Example 303, 2-{[2-Fluoro-6-(2H-1,2,3-triazol-2-yl)phenyl]carbonyl}-5-(4-methyl-1,3,5-triazin-2-yl)octahydropyrrolo[3,4-c]pyrrole] | 1.7

Now those with a lower Ki, led by results:

Ki [µM] | SMILES
0.039 | Cc1cc(C)nc(N2CC3CN(C(=O)c4ccccc4-c4nc(C)no4)CC3C2)n1 (stereo not shown) [Example 306, 2-(4,6-Dimethylpyrimidin-2-yl)-5-{[2-(3-methyl-1,2,4-oxadiazol-5-yl)phenyl]carbonyl}octahydropyrrolo[3,4-c]pyrrole]
0.033 | COc1ccc(C(=O)N2CC3CN(c4nc(C)cc(C)n4)CC3C2)c(-c2ncccn2)c1 (stereo not shown) [Example 272, (5-(4,6-Dimethylpyrimidin-2-yl)hexahydropyrrolo[3,4-c]pyrrol-2(1H)-yl)(4-methoxy-2-(pyrimidin-2-yl)phenyl)methanone]
0.026 | Cc1cc(C)nc(N2CC3CN(C(=O)c4ccccc4-c4ncn(C)n4)CC3C2)n1 (stereo not shown) [Example 308, 2-(4,6-Dimethylpyrimidin-2-yl)-5-{[2-(1-methyl-1H-1,2,4-triazol-3-yl)phenyl]carbonyl}octahydropyrrolo[3,4-c]pyrrole]
0.019 | Cc1nc(N2CC3CN(C(=O)c4ccccc4-n4nccn4)CC3C2)ncc1F (stereo not shown) [Example 290, 2-(5-Fluoro-4-methylpyrimidin-2-yl)-5-{[2-(2H-1,2,3-triazol-2-yl)phenyl]carbonyl}octahydropyrrolo[3,4-c]pyrrole]
0.01 | Cc1cc(C)nc(N2CC3CN(C(=O)c4cccc(F)c4-c4ncccn4)CC3C2)n1 (stereo not shown) [Example 283, 2-(4,6-Dimethylpyrimidin-2-yl)-5-[(3-fluoro-2-pyrimidin-2-ylphenyl)carbonyl]octahydropyrrolo[3,4-c]pyrrole]
0.008 | Cc1cc(C)nc(N2CC3CN(C(=O)c4cccc(F)c4-c4ccn[nH]4)CC3C2)n1 (stereo not shown) [Example 284, 2-(4,6-Dimethylpyrimidin-2-yl)-5-{[3-fluoro-2-(1H-pyrazol-5-yl)phenyl]carbonyl}octahydropyrrolo[3,4-c]pyrrole]
0.007 | Cc1nc(N2CC3CN(C(=O)c4ccccc4-c4nnc[nH]4)CC3C2)nc(C)c1C (stereo not shown) [Example 305, 2-{[2-(4H-1,2,4-Triazol-3-yl)phenyl]carbonyl}-5-(4,5,6-trimethylpyrimidin-2-yl)octahydropyrrolo[3,4-c]pyrrole]
0.007 | Cc1noc(-c2ccccc2C(=O)N2CC3CN(c4nc(C)c(C)c(C)n4)CC3C2)n1 (stereo not shown) [Example 309, 2-{[2-(3-Methyl-1,2,4-oxadiazol-5-yl)phenyl]carbonyl}-5-(4,5,6-trimethylpyrimidin-2-yl)octahydropyrrolo[3,4-c]pyrrole]
